{"source": "patent US20130035358A1", "about": "“Bis Aromatic Compounds for Use as LTC4 Synthase Inhibitors” (priority 2010, published 2013)", "key": {"[1]": {"test": "Thermodynamic aqueous solubility in USP phosphate buffer (Example 25)", "format": "physicochemical", "conditions": "USP phosphate buffer pH 7.4, 24 h at 20° C., LC-MS/MS, read-out: Thermodynamic aq solubility", "method": "The method described here was developed to accurately determine the aqueous solubility of compounds of the invention in buffer solution at a given pH.\nSolid material (1 mg) of test compound is added to a glass vial followed by 1 ml of buffer solution (pH 7.4 if another pH not is stated). The solution is left on an orbital shaker for 24 h at 20° C. After incubation, the remaining solid material is separated from solution and the solubility is quantified using LC-MS/MS.\nPrepare 0.2 M monobasic potassium phosphate solution by dissolving 27.22 g of KH2PO4 (MW=136.09 g/mol) in water, dilute with water to 1000 mL.\nAdd 250 mL of the monobasic potassium phosphate solution in a 1000 mL volumetric flask together with 195.5 mL 0.2M NaOH (aq). Add water to 1000 mL. Check pH.\nCompounds of the invention/examples to be tested were provided as solid material, weighed into glass vials (2 mL). Each vial contains approximately 1 mg solid compound, two vials/compound are prepared, i.e. duplicate samples of each compound. If a freshly prepared 10 mM DMSO stock solution was available, this solution was used for MS optimization and preparation of standards. If a DMSO-stock solution was not available, a 10 mM solution from solid material 1 mg was prepared.\n• Test compounds are employed as solid material. Since duplicate samples are prepared for each compound, each test compound arrives in two vials (1+1 mg). Samples are denoted as sample 1 and 2. • Note amount of substance in each vial. Add USP phosphate buffer pH 7.4 (1 mL) to each sample vial and seal vials using screw caps. Determine whether the solutions are saturated or if compounds are dissolved, note appearance and time. Start incubation; the samples are incubated on an orbital shaker (450 rpm) at 20° C. for 24 hours.\n• Take out the 1 mM DMSO-stock solutions of compounds that are to be tested from freezer. If no 1 mM solutions are available, use master solutions with concentration of 10 mM. Allow the solutions to thaw at rt. • Collect two 96-deep well plates, glass inserts, sealing film, and an 8-channel expandable pipette with tall tips. • Abort shaking after 24 hour. • Note if samples are saturated or if compounds have dissolved. • Transfer 720 μL of sample slurry from each sample vial into glass inserts in a 96-deep well plate using an 8-channel expandable pipette. Samples 1 and 2 are transferred to separate plates. Thus, all samples 1 are placed in one plate and all samples 2 in the second plate. • Seal the plates using sealing film. • Centrifuge the plates at 3000 rpm for 15 min at rt. Set acceleration to 9 and brake to 7 (9=fastest acc/brake, 0=slowest acc/brake). • Transfer the supernatants to new glass inserts using an 8-channel pipette, centrifuge samples a second time. • Repeat the procedure above, i.e. centrifuge samples a third time. • After the third centrifugation, transfer supernatant to glass vials, seal vials with screw caps. Control that the solutions are clear and that no particles are present in sample. If solid material is observed, an additional centrifugation step is performed. • Standards are prepared from DMSO-stock solutions (1 or 10 mM). For each compound, transfer […] 1 mM solution to a glass vial, add DMSO (90 μL) to reach a final concentration of 100 μM, seal with screw cap and mix solution quickly on a vortex mixer. Further dilute the 100 μM solution with a 1:1 mixture of acetonitrile and USP phosphate buffer (pH 7.4) to standards with concentration 1000, 500, 100, 25, 2, and 1 nM. Standards are prepared in test tubes.\n• Place standards in autosampler. • Try out the dilution of solubility samples so that their response will be within the standard curve. Dilute solubility sample one (or two) with the 1:1 mixture of acetonitrile:buffer. […]"}, "[2]": {"target": "T1, LTC4 synthase (Homo sapiens, UniProt Q16873)", "T1 sequence (Q16873 1-150)": "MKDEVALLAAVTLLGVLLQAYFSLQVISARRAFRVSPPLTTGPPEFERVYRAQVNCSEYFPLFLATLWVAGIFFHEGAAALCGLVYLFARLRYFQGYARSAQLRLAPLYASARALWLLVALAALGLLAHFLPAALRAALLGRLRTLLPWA", "test": "Test 1 in vitro assay: LTC4 synthase converts LTA4 to LTC4, HTRF detection", "format": "biochemical", "set-up": "made in house; host or cells: Pichia pastoris", "conditions": "Test 1 (unless otherwise indicated)", "method": "In the assay, LTC4 synthase catalyses the reaction where the substrate LTA4 is converted to LTC4. Recombinant human LTC4 synthase is expressed in Piccia pastoralis and the purified enzyme is dissolved in 25 mM tris-buffer pH 7.8 supplemented with 0.1 mM glutathione (GSH) and stored at −80° C. The assay is performed in phosphate buffered saline (PBS) pH 7.4 and 5 mM GSH in 384-well plates.\nThe following is added chronologically to each well:\n1. 48 μL LTC4 synthase in PBS with 5 mM GSH. The total protein concentration in this solution is 0.5 μg/mL. 2. 1 μL inhibitor in DMSO (final concentration 10 μM). 3. Incubation of the plate at room temperature for 10 min. 4. 1 μL LTA4 (final concentration 2.5 μM). 5. Incubation of the plate at room temperature for 5 min. 6. 10 μL of the incubation mixture is analysed using homogenous time resolved fluorescent (HTRF) detection.\nIC50 values for title compounds of the examples are depicted in the tables hereinafter (where, they are the values obtained using Test 1, unless otherwise indicated)."}, "[3]": {"conditions": "aqueous buffer, thermodynamic from solid"}}, "note": "Read-outs that look alike come from different tables or passages of the source."}
{"smiles": "CCCCCCC(=O)c1ccc(C(=O)c2ccc(N(C)c3ccc(Cl)cc3)cn2)cc1C(=O)O", "note": "[1:17, 5-{5-[(4-Chlorophenyl)(methyl)amino]picolinoyl}-2-heptanoylbenzoic acid]", "values": [{"measurement": "solubility thermodynamic at 24 h", "setting": "[1]; [3]", "value": 153, "unit": "µM"}]}
{"smiles": "CN(c1ccc(Cl)cc1)c1ccc(C(=O)c2ccc(C(=O)CC(C)(C)C)c(C(=O)O)c2)nc1", "note": "[Example 17, 5-(5-((4-Chlorophenyl)(methyl)amino)picolinoyl)-2-(3,3-dimethylbutanoyl)benzoic acid]", "values": [{"measurement": "IC50", "setting": "[2]; Table 2", "value": 235, "unit": "nM"}]}
{"smiles": "COc1cccc(CC(=O)c2ccc(C(=O)c3ccc(N(C)c4ccc(Cl)cc4)cn3)cc2C(=O)O)c1", "note": "[Example 21]", "values": [{"measurement": "IC50", "setting": "[2]; Table 2", "value": 192, "unit": "nM"}]}
{"smiles": "O=C(c1ccc(C(=O)c2cccc(O)c2)c(C(=O)O)c1)c1ccc(N(CC2CC2)c2ccc(Cl)cc2)cn1", "note": "[Example 14, 5-(5-((4-Chlorophenyl)(cyclopropylmethyl)amino)picolinoyl)-2-(3-hydroxybenzoyl)benzoic acid]", "values": [{"measurement": "solubility thermodynamic at 24 h", "setting": "[1]; [3]", "value": 1210, "unit": "µM"}, {"measurement": "IC50", "setting": "[2]; Table 2", "value": 30, "unit": "nM"}]}
{"smiles": "CN(c1ccc(Cl)cc1)c1ccc(C(=O)c2ccc(C(=O)c3cccc(O)c3)c(C(=O)O)c2)nc1", "note": "[Example 7, 5-(5-((4-Chlorophenyl)(methyl)amino)picolinoyl)-2-(3-hydroxybenzoyl)benzoic acid]", "values": [{"measurement": "IC50", "setting": "[2]", "value": 83, "unit": "nM"}]}
{"smiles": "CN(c1ccc(Cl)cc1)c1ccc(C(=O)c2ccc(C(=O)C3(c4ccccc4)CCCC3)c(C(=O)O)c2)nc1", "note": "[Example 11, 5-(5-((4-Chlorophenyl)(methyl)amino)picolinoyl)-2-(1-phenylcyclopentanecarbonyl)benzoic acid]", "values": [{"measurement": "IC50", "setting": "[2]; Table 2", "value": 76, "unit": "nM"}]}
{"smiles": "CN(c1ccc(Cl)cc1)c1ccc(C(=O)c2ccc(C(=O)c3ccccc3)c(C(=O)O)c2)nc1", "note": "[Example 1:1, 2-Benzoyl-5-{5-[(4-chlorophenyl)(methyl)amino]picolinoyl}benzoic acid]", "values": [{"measurement": "solubility thermodynamic at 24 h", "setting": "[1]; [3]", "value": 2580, "unit": "µM"}]}
{"smiles": "CN(c1ccc(Cl)cc1)c1ccc(C(=O)c2ccc(C(=O)c3cccc(C=O)c3)c(C(=O)O)c2)nc1", "note": "[Example 3, 5-(5-((4-Chlorophenyl)(methyl)amino)picolinoyl)-2-(3-formylbenzoyl)benzoic acid]", "values": [{"measurement": "IC50", "setting": "[2]", "value": 52, "unit": "nM"}]}
{"smiles": "CN(c1ccc(Cl)cc1)c1ccc(C(=O)c2ccc(C(=O)c3cccc(C(Cl)Cl)c3)c(C(=O)O)c2)nc1", "note": "[Example 2, 5-(5-((4-Chlorophenyl)(methyl)amino)picolinoyl)-2-(3-(dichloromethyl)benzoyl)-benzoic acid]", "values": [{"measurement": "IC50", "setting": "[2]", "value": 34, "unit": "nM"}]}
{"smiles": "CN(c1ccc(Cl)cc1)c1ccc(C(=O)c2ccc(C(=O)CC3CCCC3)c(C(=O)O)c2)nc1", "note": "[Example 20, 5-(5-((4-Chlorophenyl)(methyl)amino)picolinoyl)-2-(2-cyclopentylacetyl)benzoic acid]", "values": [{"measurement": "IC50", "setting": "[2]; Table 2", "value": 81, "unit": "nM"}]}
{"smiles": "CN(c1ccc(Cl)cc1)c1ccc(C(=O)c2ccc(C(=O)C3(c4ccccc4)CC3)c(C(=O)O)c2)nc1", "note": "[1:19, 5-{5-[(4-Chlorophenyl)(methyl)amino]picolinoyl}-2-(1-phenylcyclopropyl-carbonyl)benzoic acid]", "values": [{"measurement": "solubility thermodynamic at 24 h", "setting": "[1]; [3]", "value": 680, "unit": "µM"}]}
{"smiles": "COc1cccc(C(=O)c2ccc(C(=O)c3ccc(Cc4ccc(Cl)cc4)cn3)cc2C(=O)O)c1", "note": "[Example 6, 5-(5-(4-Chlorobenzyl)picolinoyl)-2-(3-methoxybenzoyl)benzoic acid]", "values": [{"measurement": "solubility thermodynamic at 24 h", "setting": "[1]; [3]", "value": 1900, "unit": "µM"}, {"measurement": "IC50", "setting": "[2]", "value": 155, "unit": "nM"}]}
{"smiles": "O=C(c1ccc(C(=O)c2ccc3c(c2)OCCO3)c(C(=O)O)c1)c1ccc(N(CC2CC2)c2ccc(Cl)cc2)cn1", "note": "[Example 4, 5-(5-((4-Chlorophenyl)(cyclopropylmethyl)amino)picolinoyl)-2-(2,3-dihydrobenzo-[b][1,4]dioxine-6-carbonyl)benzoic acid]", "values": [{"measurement": "IC50", "setting": "[2]", "value": 21, "unit": "nM"}]}
{"smiles": "CN(c1ccc(Cl)cc1)c1ccc(C(=O)c2ccc(C(=O)C3(c4ccccc4)CCCCC3)c(C(=O)O)c2)nc1", "note": "[Example 9, 5-(5-((4-Chlorophenyl)(methyl)amino)picolinoyl)-2-(1-phenylcyclohexanecarbonyl)benzoic acid]", "values": [{"measurement": "solubility thermodynamic at 24 h", "setting": "[1]", "value": 7, "unit": "µM"}, {"measurement": "IC50", "setting": "[2]; Table 2", "value": 32, "unit": "nM"}]}
{"smiles": "CN(c1ccc(Cl)cc1)c1ccc(C(=O)c2ccc(C(=O)C3CC3c3ccccc3)c(C(=O)O)c2)nc1", "note": "(centres unmarked) [Example 19, 5-(5-((4-Chlorophenyl)(methyl)amino)picolinoyl)-2-(2-phenylcyclopropanecarbonyl)benzoic acid]", "values": [{"measurement": "IC50", "setting": "[2]; Table 2", "value": 141, "unit": "nM"}]}
{"smiles": "COc1cccc(C(=O)c2ccc(C(=O)c3ccc(N(CC4CC4)c4ccc(Cl)cc4)cn3)cc2C(=O)O)c1", "note": "[Example 13, 5-(5-((4-Chlorophenyl)(cyclopropylmethyl)amino)picolinoyl)-2-(3-methoxybenzoyl)benzoic acid]", "values": [{"measurement": "IC50", "setting": "[2]; Table 2", "value": 18, "unit": "nM"}]}
{"smiles": "CN(c1ccc(Cl)cc1)c1ccc(C(=O)c2ccc(C(=O)C3CC4CCC3C4)c(C(=O)O)c2)nc1", "note": "(centres unmarked) [Example 15, 2-(Bicyclo[2.2.1]heptane-2-carbonyl)-5-(5-((4-chlorophenyl)(methyl)amino)-picolinoyl)benzoic acid]", "values": [{"measurement": "solubility thermodynamic at 24 h", "setting": "[1]; [3]", "value": 1980, "unit": "µM"}, {"measurement": "IC50", "setting": "[2]; Table 2", "value": 94, "unit": "nM"}]}
{"smiles": "CN(c1ccc(Cl)cc1)c1ccc(C(=O)c2ccc(C(=O)CCC3CCCCC3)c(C(=O)O)c2)nc1", "note": "[Example 18, 5-(5-((4-Chlorophenyl)(methyl)amino)picolinoyl)-2-(3-cyclohexylpropanoyl)benzoic acid]", "values": [{"measurement": "solubility thermodynamic at 24 h", "setting": "[1]; [3]", "value": 37, "unit": "µM"}, {"measurement": "IC50", "setting": "[2]; Table 2", "value": 59, "unit": "nM"}]}
{"smiles": "COc1ccc(C2(C(=O)c3ccc(C(=O)c4ccc(N(C)c5ccc(Cl)cc5)cn4)cc3C(=O)O)CC2)cc1", "note": "[Example 10, 5-(5-((4-Chlorophenyl)(methyl)amino)picolinoyl)-2-(1-(4-methoxyphenyl)cyclopropanecarbonyl)benzoic acid]", "values": [{"measurement": "solubility thermodynamic at 24 h", "setting": "[1]; [3]", "value": 403, "unit": "µM"}, {"measurement": "IC50", "setting": "[2]; Table 2", "value": 22, "unit": "nM"}]}
{"smiles": "COc1ccc(C(=O)c2ccc(C(=O)c3ccc(N(CC4CC4)c4ccc(Cl)cc4F)cn3)cc2C(=O)O)cc1", "note": "[1:5, 5-{5-[(4-Chloro-2-fluorophenyl)(cyclopropylmethyl)amino]picolinoyl}-2-(4-methoxybenzoyl)benzoic acid]", "values": [{"measurement": "solubility thermodynamic at 24 h", "setting": "[1]; [3]", "value": 2480, "unit": "µM"}]}
{"smiles": "O=C(c1ccc(Cl)cc1)c1ccc(C(=O)c2ccc(C(=O)c3ccccc3)c(C(=O)O)c2)nc1", "note": "[Example 5, 2-Benzoyl-5-(5-(4-chlorobenzoyl)picolinoyl)benzoic acid]", "values": [{"measurement": "IC50", "setting": "[2]", "value": 1290, "unit": "nM"}]}
{"smiles": "COc1ccc(C(=O)c2ccc(C(=O)c3ccc(N(CC4CC4)c4ccc(Cl)cc4)cn3)cc2C(=O)O)cc1", "note": "[1:4, 5-{5-[(4-Chlorophenyl)(cyclopropylmethyl)amino]picolinoyl}-2-(4-methoxy-benzoyl)benzoic acid]", "values": [{"measurement": "solubility thermodynamic at 24 h", "setting": "[1]; [3]", "value": 2210, "unit": "µM"}]}
{"smiles": "CN(c1ccc(Cl)cc1)c1ccc(C(=O)c2ccc(C(=O)C(C)(C)c3ccccc3)c(C(=O)O)c2)nc1", "note": "[Example 16, 5-(5-((4-Chlorophenyl)(methyl)amino)picolinoyl)-2-(2-methyl-2-phenylpropanoyl)benzoic acid]", "values": [{"measurement": "IC50", "setting": "[2]; Table 2", "value": 55, "unit": "nM"}]}
